Measurements as given in publication PMC5111045, “Modulation of NMDA channel gating by Ca^2+ and Cd^2+ binding to the external pore mouth” (Scientific Reports, 2016).
Values joined by “and” are separate entries in the source; they are usually repeats but may differ in a detail not shown here. Equal entries are not always repeated. Where two headings read alike, the source gives them in different places.

What was measured:
[1] = target: T1, NMDA receptor channel (GluN1a variant/GluN2B), wild-type (Rattus norvegicus, UniProt P35439+Q00960); test: Outside-out patch recordings of NMDA receptor currents, wild-type channel expressed in Xenopus oocytes; format: cell-based
T1 construct: expressed in transfected cells; host or cells: Xenopus laevis oocytes (cRNA injection)
Description: (§1) The rat GluN1a variant and GluN2B cDNA clones were used in this study. Point mutations were made by site-directed mutagenesis using the QuickChange Site-Directed Mutagenesis kit (Stratagene, La Jolla, CA). Mutations were verified by DNA sequencing to ensure the lack of any inadvertent mutations. The capped cRNA transcripts were then synthesized using T7 and T3 mMESSAGE mMACHINE transcription kits (Ambion, Austin, TX), and were stored at −80 °C.
(§2) This study was carried out in accordance with the ethical information guidelines of the National Taiwan University College of Medicine. The protocols for the care and use of animals were approved by the National Taiwan University College of Medicine and College of Public Health Institutional Animal Care and Use Committee (IACUC). All efforts were made to minimize animal suffering. Adult female Xenopus laevis were anesthetized, and ovarian lobes containing stage V or VI oocytes were removed. Oocytes were dispersed after manual disruption of the egg sac, and were digested for 1 hr with collagenase type I (2 mg/ml) to remove the follicular layer. A mixture of GluN1a variant and GluN2B cRNAs with a ratio of 1:5 (i.e., 0.1–4 ng of GluN1a variant and 0.5–20 ng of GluN2B) (Kashiwagi et al. 2002) was injected into oocytes. Oocytes were maintained in the culture medium (96 mM NaCl, 2 mM KCl, 1.8 mM MgCl2, 1.8 mM CaCl2, 5 mM HEPES, and 50 ug/ml gentamycin, pH 7.6) at 18 °C for 2–3 days before electrophysiological recordings.
Oocytes were placed in a recording chamber containing Mg^2+-free bath solution (150 mM NaMeSO3, 5 mM NaCl, and 10 mM HEPES; pH 7.4). Outside-out patch recordings were obtained using fire-polished pipettes pulled from borosilicate capillaries (outer diameter, 1.55–1.60 mm; Hilgenberg, Malsfeld, Germany). Recording pipettes ([…]) were filled with the pipette solution containing 150 mM NaMeSO3, 5 mM NaCl, 5 mM EGTA, and 10 mM HEPES (pH 7.4). A seal was formed, and the outside-out patch configuration was obtained in Tyrode’s solution (150 mM NaCl, 4 mM KCl, 2 mM MgCl2, 2 mM CaCl2, and 10 mM HEPES; pH 7.4). The patch was then lifted from the bottom of the chamber and moved in front of a set of “theta glass” tubes (2.0 mm outer diameter pulled to an opening of ~300 μm in width; Warner Instrument, Hamden, CT) emitting external recording solutions. The standard external solution was Mg^2+-free Ca^2+-free Tyrode’s solution (pH 7.4), but 2 mM Ca^2+ or 0.1–100 μM Cd^2+ may be added to the external recording solution as specified in each different experimental condition. The glass-tube holder was connected to a stepper motor (SF-77B perfusion system, Warner Instrument) to achieve fast switch for rapid solution change. Drugs and salts were purchased from Sigma (St. Louis, MO). NMDA, glycine, and Cd^2+ were dissolved in water to make 100, 100, and 10 mM stock solutions, respectively. The stock solutions were then diluted into the external recording solution to make 1 to 100 μM Cd^2+, 1 to 300 μM NMDA, and 30 μM glycine. The NMDA currents were recorded at a membrane potential of −70 mV and at room temperature (~25 °C) with an […] amplifier, filtered at 1 kHz with a four-pole Bessel filter, digitized at 500 μs intervals, and stored using a Digidata-1322A analog/digital interface along with the pCLAMP software (all from MDS Analytical Technologies, Sunnyvale, CA). To plot the activation and the desensitization curves, a patch was moved from the NMDA- and glycine-free external solution to the external solution containing 0 to 100 μM NMDA and 30 μM glycine for 3 s (the desensitization prepulse), and then moved to another external solution containing 300 μM NMDA and 30 μM glycine for 3 s (the test pulse) before being moved back to the NMDA-free external solution again. The amplitude of the sustained currents in the desensitization prepulse in each different concentration of NMDA is normalized to the maximal current and plotted against the NMDA concentration to obtain the activation curve. […]

[2] = target: E661A mutant NMDA channel; test: Outside-out patch recordings, E661A mutant NMDA channel; format: cell-based, rat; conditions: Hill coefficient of 1 assumed
Description: as §1
(§3) This study was carried out in accordance with the ethical information guidelines of the National Taiwan University College of Medicine. The protocols for the care and use of animals were approved by the National Taiwan University College of Medicine and College of Public Health Institutional Animal Care and Use Committee (IACUC). All efforts were made to minimize animal suffering. […]
(§4) Oocytes were placed in a recording chamber containing Mg^2+-free bath solution (150 mM NaMeSO3, 5 mM NaCl, and 10 mM HEPES; pH 7.4). […] The NMDA currents were recorded at a membrane potential of −70 mV and at room temperature (~25 °C) with an […] amplifier, filtered at 1 kHz with a four-pole Bessel filter, digitized at 500 μs intervals, and stored using a Digidata-1322A analog/digital interface along with the pCLAMP software (all from MDS Analytical Technologies, Sunnyvale, CA). […]

[3] = target: E662A mutant NMDA channel; test: Outside-out patch recordings, E662A mutant NMDA channel; format: cell-based, rat; conditions: Hill coefficient of 1 assumed
Description: as §1, §3, §4

[4] = target: T2, E661AE662A double mutant NMDA channel (Rattus norvegicus, UniProt P35439+Q00960, E661A/E662A); test: Outside-out patch recordings, E661AE662A double mutant NMDA channel; format: cell-based; conditions: for coupling coefficient ((KdWT × KdE661AE662A)/(KdE661A × KdE662A)), double mutant cycle analysis: mutations E661A and E662A; for Kd: E661AE662A, Hill coefficient of 1 assumed
T2 construct: expressed in transfected cells; host or cells: Xenopus laevis oocytes (cRNA injection)
Description: as §1, §2
Oocytes were placed in a recording chamber containing Mg^2+-free bath solution (150 mM NaMeSO3, 5 mM NaCl, and 10 mM HEPES; pH 7.4). Outside-out patch recordings were obtained using fire-polished pipettes pulled from borosilicate capillaries (outer diameter, 1.55–1.60 mm; Hilgenberg, Malsfeld, Germany). Recording pipettes ([…]) were filled with the pipette solution containing 150 mM NaMeSO3, 5 mM NaCl, 5 mM EGTA, and 10 mM HEPES (pH 7.4). A seal was formed, and the outside-out patch configuration was obtained in Tyrode’s solution (150 mM NaCl, 4 mM KCl, 2 mM MgCl2, 2 mM CaCl2, and 10 mM HEPES; pH 7.4). The patch was then lifted from the bottom of the chamber and moved in front of a set of “theta glass” tubes (2.0 mm outer diameter pulled to an opening of ~300 μm in width; Warner Instrument, Hamden, CT) emitting external recording solutions. The standard external solution was Mg^2+-free Ca^2+-free Tyrode’s solution (pH 7.4), but 2 mM Ca^2+ or 0.1–100 μM Cd^2+ may be added to the external recording solution as specified in each different experimental condition. The glass-tube holder was connected to a stepper motor (SF-77B perfusion system, Warner Instrument) to achieve fast switch for rapid solution change. Drugs and salts were purchased from Sigma (St. Louis, MO). NMDA, glycine, and Cd^2+ were dissolved in water to make 100, 100, and 10 mM stock solutions, respectively. The stock solutions were then diluted into the external recording solution to make 1 to 100 μM Cd^2+, 1 to 300 μM NMDA, and 30 μM glycine. The NMDA currents were recorded at a membrane potential of −70 mV and at room temperature (~25 °C) with an […] amplifier, filtered at 1 kHz with a four-pole Bessel filter, digitized at 500 μs intervals, and stored using a Digidata-1322A analog/digital interface along with the pCLAMP software (all from MDS Analytical Technologies, Sunnyvale, CA). […]

[5] = target: T3, D658A mutant NMDA channel (Rattus norvegicus, UniProt P35439+Q00960, D658A); test: Outside-out patch recordings, D658A mutant NMDA channel; format: cell-based; conditions: 30 μM Cd2+ between NMDA pulses; P = 0.034
T3 construct: expressed in transfected cells; host or cells: Xenopus laevis oocytes (cRNA injection)
Description: as §1, §3, §4

[6] = target: T4, D658AE661AE662A triple mutant NMDA channel (Rattus norvegicus, UniProt P35439+Q00960, D658A/E661A/E662A); test: Outside-out patch recordings, D658AE661AE662A triple mutant NMDA channel; format: cell-based
T4 construct: expressed in transfected cells; host or cells: Xenopus laevis oocytes (cRNA injection)
Description: as §1, §3, §4

[7] = target: T5, T647A (GluN2B) mutant NMDA channel (Rattus norvegicus, UniProt P35439+Q00960, T647A); test: Outside-out patch recordings, T647A (GluN2B) mutant NMDA channel; format: cell-based; conditions: 30 μM Cd2+
T5 construct: expressed in transfected cells; host or cells: Xenopus laevis oocytes (cRNA injection)
Description: as §1, §2, §4

[8] = Fig. 5e inset, read-out: apparent dissociation constant, closed channel, derived from relative peak current in 30 μM Cd2+
[9] = Fig. 6e inset, read-out: apparent dissociation constant, activated channel, derived from relative sustained current in 30 μM Cd2+

T2 sequence (Q00960 27-1482, other chains not shown): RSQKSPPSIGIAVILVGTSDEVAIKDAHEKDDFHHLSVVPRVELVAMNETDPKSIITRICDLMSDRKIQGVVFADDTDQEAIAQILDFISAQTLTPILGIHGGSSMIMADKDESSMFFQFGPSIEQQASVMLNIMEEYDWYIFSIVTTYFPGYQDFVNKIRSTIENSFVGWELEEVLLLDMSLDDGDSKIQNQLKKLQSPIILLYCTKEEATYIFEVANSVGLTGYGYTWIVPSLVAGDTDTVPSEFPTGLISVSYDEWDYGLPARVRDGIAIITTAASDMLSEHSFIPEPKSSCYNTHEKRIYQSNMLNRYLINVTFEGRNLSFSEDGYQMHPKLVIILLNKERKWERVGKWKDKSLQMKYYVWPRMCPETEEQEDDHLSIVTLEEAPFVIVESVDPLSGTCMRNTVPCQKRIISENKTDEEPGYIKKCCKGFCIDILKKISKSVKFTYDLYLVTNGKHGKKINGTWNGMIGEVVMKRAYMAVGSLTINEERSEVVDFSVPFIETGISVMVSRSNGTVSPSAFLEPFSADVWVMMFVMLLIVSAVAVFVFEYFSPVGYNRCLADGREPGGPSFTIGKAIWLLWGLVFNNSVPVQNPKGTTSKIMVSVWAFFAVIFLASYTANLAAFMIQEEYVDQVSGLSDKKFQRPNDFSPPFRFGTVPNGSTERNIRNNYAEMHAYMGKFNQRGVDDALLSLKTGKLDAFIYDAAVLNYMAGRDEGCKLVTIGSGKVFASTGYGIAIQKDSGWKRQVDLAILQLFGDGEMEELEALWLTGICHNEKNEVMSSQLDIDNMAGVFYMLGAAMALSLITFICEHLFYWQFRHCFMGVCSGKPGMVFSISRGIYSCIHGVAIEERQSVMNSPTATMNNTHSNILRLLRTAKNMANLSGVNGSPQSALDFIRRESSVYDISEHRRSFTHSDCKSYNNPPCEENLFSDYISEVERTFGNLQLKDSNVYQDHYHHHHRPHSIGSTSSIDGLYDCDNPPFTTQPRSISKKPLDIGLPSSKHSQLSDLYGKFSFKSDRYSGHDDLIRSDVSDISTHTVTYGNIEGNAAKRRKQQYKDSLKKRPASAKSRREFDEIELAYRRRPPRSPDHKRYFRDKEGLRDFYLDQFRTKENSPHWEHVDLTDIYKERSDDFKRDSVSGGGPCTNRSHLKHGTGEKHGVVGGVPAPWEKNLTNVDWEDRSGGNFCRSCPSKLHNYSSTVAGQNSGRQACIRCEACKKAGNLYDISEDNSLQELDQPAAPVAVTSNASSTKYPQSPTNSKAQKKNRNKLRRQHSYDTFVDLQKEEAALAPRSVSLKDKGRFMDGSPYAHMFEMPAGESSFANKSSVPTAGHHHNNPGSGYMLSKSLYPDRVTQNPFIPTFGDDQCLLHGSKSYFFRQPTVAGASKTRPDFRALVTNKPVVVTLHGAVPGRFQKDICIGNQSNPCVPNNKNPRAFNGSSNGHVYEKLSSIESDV
T1 sequence (Q00960 27-1482, other chains not shown): as above
T4 sequence (Q00960 27-1482, other chains not shown): as above

## [Cd+2] [Cd^2+]
[1]; 3 μM Cd2+, n = 4
  shift of the activation curve: moderate leftward shift
  shift of the desensitization curve: moderate leftward shift
[1]; 30 μM Cd2+ vs 2 mM Ca2+ in the extracellular milieu
  effect on NMDAR currents relative to 2 mM Ca2+: stronger effects than 2 mM Ca^2+
[1]; activated (steady-state mixture of open and desensitized) channel, Cd2+ during the NMDA pulse, Fig. 3b, n = 7, read-out: apparent dissociation constant (Kd), Hill fit of relative sustained current
  Kd: ~1.6 µM
[1]; activated channel, sustained current, mean ± SEM, read-out: Kd from fits of each individual data set, Fig. 3b
  Kd: 1.4 ± 0.16 µM
[1]; activated channel, Fig. 3b
  Hill coefficient n, relative sustained current: 1
[1]; activated channel, essentially zero, n = 4
  slope of unbinding rates against Cd2+ concentration: ~ 0.01 M^−1s^−1
[1]; activated channel, fast application of Cd2+, n = 4
  macroscopic on rate (slope of binding rates against Cd2+ concentration): 430000 M⁻¹ s⁻¹
[1]; activated channel, linear regression, n = 4
  intercept of binding rates against Cd2+ concentration: 9.4 s⁻¹
[1]; activated channel, wash-off of Cd2+, n = 4
  macroscopic off rate (intercept of unbinding rates): 6.8 s⁻¹
[1]; closed (resting) channel, Cd2+ applied in the interpulse phase, Fig. 2b, n = 7, read-out: apparent dissociation constant (Kd), Hill fit of relative peak current
  Kd: 6 µM and ~6 µM
[1]; closed channel, activation speed, mean ± SEM, read-out: Kd from fits of each individual data set, Fig. 2d
  Kd: 3.4 ± 0.66 µM
[1]; closed channel, peak current, mean ± SEM, read-out: Kd from fits of each individual data set, Fig. 2b
  Kd: 7.6 ± 1.2 µM
[1]; closed channel, Cd2+ in the interpulse phase, Fig. 2d, n = 4, read-out: apparent dissociation constant (Kd), Hill fit of relative initial activation speed
  Kd: 4.5 µM and ~4.5 µM
[1]; closed channel, Fig. 2b
  Hill coefficient n, relative peak current: 1
[1]; closed channel, Fig. 2d
  Hill coefficient n, relative activation speed: 1
[1]; equal to KCd2+,o × m/r from model fits in 3 μM Cd2+, not a precise estimate, read-out: KCd2+,d (dissociation constant for Cd2+ binding to the desensitized NMDA channel)
  Kd: 1.25 µM
[1]; model fit (equations 2 and 4) to activation and desensitization data in 3 μM Cd2+, not a precise estimate, read-out: KCd2+,o (dissociation constant for Cd2+ binding to the open NMDA channel)
  Kd: 2.5 µM
[1]; model fit to activation and desensitization data in 3 μM Cd2+, m set at 4
  r value, r = m × (KCd2+,o/KCd2+,d): 8
[1]; ratio between the macroscopic off rate and on rate, Fig. 4a inset, read-out: rough estimate of the dissociation constant of Cd2+ to the open state
  Kd: ~16 µM
[1]; wild-type, Hill coefficient of 1 assumed, Fig. 5e inset, read-out: apparent dissociation constant, closed channel, derived from relative peak current in 30 μM Cd2+
  Kd: 19.6 µM
[1]; wild-type, Hill coefficient of 1 assumed, Fig. 6e inset, read-out: apparent dissociation constant, activated channel, derived from relative sustained current in 30 μM Cd2+
  Kd: 3.2 µM
[2]; [8]
  Kd: 40.7 µM
[2]; [9]
  Kd: 7.7 µM
[3]; [8]
  Kd: 37.3 µM
[3]; [9]
  Kd: 5.6 µM
[4]; Cd2+ binding to the activated NMDA channel
  coupling coefficient ((KdWT × KdE661AE662A)/(KdE661A × KdE662A)), double mutant cycle analysis: 1.03
[4]; Cd2+ binding to the closed NMDA channel
  coupling coefficient ((KdWT × KdE661AE662A)/(KdE661A × KdE662A)), double mutant cycle analysis: 0.90
[4]; [8]
  Kd: 70.2 µM
[4]; [9]
  Kd: 13.9 µM
[5]
  effect on peak current, closed channel, compared with WT: less pronounced
[6]; 30 μM Cd2+ between NMDA pulses, P = 0.0093
  effect on peak current, closed channel, compared with WT: less pronounced
[6]; 30 μM Cd2+ during NMDA pulse, P = 0.00031
  effect on sustained current, activated channel, compared with WT: less pronounced
[7]; P = 0.00012
  relative hook current after wash-off of agonists and blocking cation, compared with WT channel: significantly larger hook current
[7]; n = 8 vs WT n = 6, P = 0.00037
  inhibitory effect on sustained current (relative current) compared with WT channel: significantly smaller effect
